Values quoted from earlier work in patent US7291352B2 (HerbalScience LLC, priority 2001, dated 2007).

Tested on: gamma-aminobutyric acid (GABA) receptor uptake
Settings: in micromolar concentrations

| Structure (SMILES) | inhibition of GABA receptor uptake |
| --- | --- |
| CN1CCC=C(C(=O)O)C1 [arecaidine] | inhibit |
| O=C(O)C1=CCCNC1 [guvacine] | inhibit |
